Results reported in the Bradley open melting point set (2014).

With `O=C1C(c2ccccc2)=C(c2ccccc2)C(c2ccccc2)=C1c1ccccc1` [tetraphenylcyclopentadienone] the melting point was 218 °C.
With `CC(C)(C)NCC(O)COc1cc(Cl)ccc1Cl` (stereo not given) [cloranolol] the melting point was 82 °C.
Compound `CCC(=O)OC` [Methyl propionate] has a melting point of -88 °C.
Work on `CC1(C)[C@@H]2CC[C@@]1(C)C(=O)C2` [(1R)-camphor] yielded a melting point of 178 °C.
`CCOC(=O)C1=C(C)N=NC1C` (stereo not given) [ethyl 3,5-dimethyl-1H-pyrazole-4-carboxylate] gave a melting point of 119 °C.
In the case of `NC(=O)N1c2ccccc2C=Cc2ccccc21` [Carbamazepine], the melting point is reported as 190 °C.
Compound `O=C(O)CCC(=O)c1ccc(-c2ccccc2)cc1` [fenbufen] has a melting point of 186 °C.
`N#CC(C#N)=Nc1ccccc1` [(phenylimino)propanedinitrile] showed a melting point of 87 °C.
`O=C1NC(=O)c2cc([N+](=O)[O-])ccc21` [4-nitrophthalimide] showed a melting point of 198 °C.
In the case of `CCCCCCCCCCCCCO` [1-tridecanol], the melting point is reported as 34 °C.
`CC(C)(C)c1cc(O)c(C(C)(C)C)cc1O` [2,5-Di-tert-butylbenzene-1,4-diol] gave a melting point of 218 °C.
For `O=C1Nc2ccccc2C1=O` [Isatin], the melting point was 203 °C.
For `Oc1ccccc1I` [2-iodophenol], the melting point was 40 °C.
In the case of `c1cc(ccc1NC(=O)/C=CC(=O)O)F` [N-(4-fluorophenyl)maleamic acid], the melting point is reported as 208 °C.
In the case of `C` [Methane], the melting point is reported as -182 °C.
`CC(=O)Oc1c(C)c(C)c2c(c1C)CC[C@@](C)(CCC[C@H](C)CCC[C@H](C)CCCC(C)C)O2` [vitamin e acetate] gave a melting point of -28 °C.
Compound `Cc1cc(C)c(N=C=O)c(C)c1` [2,4,6-trimethylphenyl isocyanate] has a melting point of 45 °C.
With `CN1C(=O)C(=NNc2c(Br)cc(Br)cc2Br)C(=O)N(C)C1=O` the melting point was 166 °C.
With `O=C(O)CC1Cc2ccccc2C1` [2-indanylacetic acid] the melting point was 92 °C.
In the case of `CCOC(=O)CSCCC1NC(C(=O)O)CS1` (stereo not given) [letosteine], the melting point is reported as 142 °C.
In the case of `CCc1cccc(O)c1` [3-ethylphenol], the melting point is reported as -4 °C.
Compound `O=S(=O)(O)C(F)(F)F` [trifluoromethanesulfonic acid] has a melting point of -40 °C.
`O=C(O)c1ccccc1C(=O)O` [phthalic_acid] showed a melting point of 210 °C.
`O=C(O)c1ccc(Br)cc1` [4-Bromobenzoic acid] showed a melting point of 253 °C.
In the case of `NC(N)=Nc1nc(CSCCC(N)=N[S+2](N)([O-])[O-])cs1`, the melting point is reported as 163 °C.
`CCCCCCCCCCCCCCCCCCCCCC` [N-docosane] gave a melting point of 45 °C.
For `CCCCCCC#N` [hexyl_cyanide], the melting point was -63 °C.
`CC(=O)S[C@@H]1CC2=CC(=O)CC[C@]2(C)[C@H]2CC[C@@]3(C)[C@@H](CC[C@@]34CCC(=O)O4)[C@H]12` [spironolactone] showed a melting point of 134 °C.
`CC(=O)Nc1ccc(Br)cc1OC(F)(F)F` [4'-bromo-2'-(trifluoromethoxy)acetanilide] showed a melting point of 136 °C.
For `C1OCOCO1` [1,3,5-trioxane], the melting point was 61 °C.
With `COc1ccc(B(O)O)c(OC)n1` [2,6-dimethoxypyridine-3-boronic acid] the melting point was 129 °C.
`NS(=O)(=O)c1cccc(Br)c1` [3-bromobenzenesulfonamide] showed a melting point of 156 °C.
`O=Cc1ccc(C(F)(F)F)cc1` [4-(trifluoromethyl)benzaldehyde] gave a melting point of 1.5 °C.
Compound `C=CCCCCCCCCCCCCCCCC` [1-octadecene] has a melting point of 18 °C.
`O=C(c1ccccc1)C(Cl)Cl` [2,2-dichloroacetophenone] gave a melting point of 21 °C.
With `Cc1ccc(Sc2ccccc2NS(=O)(=O)c2ccc(C)cc2)cc1` the melting point was 83.8 °C.
With `CC(CN1CCOCC1)C(C(=O)N1CCCC1)(c1ccccc1)c1ccccc1` (stereo not given) [dextromoramide] the melting point was 180 °C.
`Cc1cc(C(=O)O)no1` [5-methylisoxazole-3-carboxylic acid] gave a melting point of 172 °C.
For `CC(C)C1C(=O)NC(=O)NC1=O` [5-isopropylbarbituric acid], the melting point was 215 °C.
`Cc1ccnc(NS(=O)(=O)c2ccc(N)cc2)n1` [sulfamerazine] gave a melting point of 234 °C.
